Test results published in US8324245B2, “Quinoline derivative and quinazoline derivative inhibiting self-phosphorylation of hepatocytus proliferator receptor, and medicinal composition containing the same” (Kyowa Hakko Kirin Co., Ltd., priority 2001, dated 2012).

Molecular target: T1, met (HGF receptor) in human gastric cancer cells MKN45 (Homo sapiens, UniProt P08581)
T1 construct: endogenous in cells; host or cells: MKN45 human gastric cancer cells
Test: Inhibitory activity against met-autophosphorylation using ELISA method (2), MKN45 cells, HGF-independent
Type: cell-based
In short: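 MKN45 cells, 3×10^4 per well in RPMI with 0.1% FCS overnight, were exposed to compound in DMSO for 1 h at 37 °C without HGF. Lysates were captured on anti-phosphotyrosine (PY20) plates, Met detected with anti-Met and peroxidase secondary antibody, absorbance at 450 nm.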

T1 sequence (P08581 25-1390): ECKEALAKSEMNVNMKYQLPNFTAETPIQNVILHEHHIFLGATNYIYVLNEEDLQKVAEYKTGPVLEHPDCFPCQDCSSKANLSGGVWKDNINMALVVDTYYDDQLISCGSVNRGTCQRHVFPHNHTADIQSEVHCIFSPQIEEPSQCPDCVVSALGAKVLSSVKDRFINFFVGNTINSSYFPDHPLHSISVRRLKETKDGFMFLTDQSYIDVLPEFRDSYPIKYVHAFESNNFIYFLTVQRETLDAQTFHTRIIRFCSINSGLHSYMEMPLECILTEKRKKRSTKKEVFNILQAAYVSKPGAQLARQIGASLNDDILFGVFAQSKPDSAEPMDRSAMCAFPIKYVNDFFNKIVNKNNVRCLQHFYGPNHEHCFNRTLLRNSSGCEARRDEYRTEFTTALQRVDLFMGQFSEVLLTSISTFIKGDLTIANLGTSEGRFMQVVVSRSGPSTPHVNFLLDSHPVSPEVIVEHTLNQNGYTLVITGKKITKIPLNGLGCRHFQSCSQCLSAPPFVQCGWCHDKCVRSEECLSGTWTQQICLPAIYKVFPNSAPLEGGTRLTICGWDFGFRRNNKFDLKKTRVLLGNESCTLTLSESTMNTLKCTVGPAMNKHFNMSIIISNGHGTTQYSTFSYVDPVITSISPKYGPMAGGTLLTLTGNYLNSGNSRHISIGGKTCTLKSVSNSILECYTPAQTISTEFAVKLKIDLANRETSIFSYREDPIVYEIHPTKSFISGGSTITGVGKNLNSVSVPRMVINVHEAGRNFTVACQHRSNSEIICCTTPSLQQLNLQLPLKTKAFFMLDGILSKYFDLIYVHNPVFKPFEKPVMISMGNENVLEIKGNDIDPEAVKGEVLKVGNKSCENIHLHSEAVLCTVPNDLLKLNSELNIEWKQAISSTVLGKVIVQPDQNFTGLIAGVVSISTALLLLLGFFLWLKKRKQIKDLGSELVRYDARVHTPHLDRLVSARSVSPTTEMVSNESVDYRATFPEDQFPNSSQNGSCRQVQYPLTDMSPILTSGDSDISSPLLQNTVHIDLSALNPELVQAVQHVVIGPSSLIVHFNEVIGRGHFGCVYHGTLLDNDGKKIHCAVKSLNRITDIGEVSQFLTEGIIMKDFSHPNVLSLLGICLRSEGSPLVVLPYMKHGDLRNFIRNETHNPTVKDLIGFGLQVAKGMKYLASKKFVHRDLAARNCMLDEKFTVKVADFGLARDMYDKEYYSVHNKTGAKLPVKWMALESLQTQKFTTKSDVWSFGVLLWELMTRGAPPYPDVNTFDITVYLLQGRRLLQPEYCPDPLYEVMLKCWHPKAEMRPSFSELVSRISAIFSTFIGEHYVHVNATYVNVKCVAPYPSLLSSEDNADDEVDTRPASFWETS

| SMILES | IC50 [nM] |
| --- | --- |
| COc1cc2nccc(Oc3ccc(NC(=O)CC(=O)Nc4ccc(F)cc4)cc3)c2cc1OC [Example 5, N-[4-(6,7-dimethoxyquinolin-4-yloxy)phenyl]-N′-(4-fluorophenyl)malonamide] | 18.9 |
| COc1cc2nccc(Oc3ccc(NC(=O)NC(=O)Nc4ccc([N+](=O)[O-])cc4)cc3)c2cc1OC [Example 254, N-(4-nitrophenyl)-({[4-(6,7-dimethoxy-quinolin-4-yloxy)anilino]carbonyl}amino)methanamide] | 365 |
| COc1cc2c(Oc3ccc(NC(=O)NC(=O)Cc4ccc(F)cc4)c(F)c3)ccnc2cc1OCCCN1CCN(C)CC1 [Example 51, 1-(2-fluoro-4-{6-methoxy-7-[3-(4-methyl-piperazin-1-yl)-propoxy]quinolin-4-yloxy}phenyl)-3-[2-(4-fluorophenyl)acetyl]urea] | 203 |
| COc1cc2nccc(Oc3ccc(NC(=S)NC(=O)CC4C5CCC4CC5)cc3)c2cc1OC (stereo not drawn) [Example 88, 1-(2-bicyclo[2.2.1]hepto-7-ylacetyl)-3-[4-(6,7-dimethoxyquinolin-4-yloxy)phenyl]thiourea] | 49.2 |
| COc1cc2nccc(Oc3ccc(NC(=S)NC(=O)CC4C5CCC4CC5)cc3Cl)c2cc1OC (stereo not drawn) [Example 91, 1-(2-bicyclo[2.2.1]hepto-7-ylacetyl)-3-[3-chloro-4-(6,7-dimethoxyquinolin-4-yloxy)phenyl]thiourea] | 40.1 |
| CCCCOCC(=O)NC(=S)Nc1ccc(Oc2ccnc3cc(OC)c(OC)cc23)c(F)c1 [Example 167, 1-(2-butoxyacetyl)-3-[4-(6,7-dimethoxy-quinolin-4-yloxy)-3-fluorophenyl]thiourea] | 259 |
| COc1cc2c(Oc3ccc(NC(=S)NC(=O)Cc4ccc(F)cc4)cc3F)ccnc2cc1OCCCN1CCC(CO)CC1 [Example 310, 1-(3-Fluoro-4-{7-[3-(4-hydroxymethyl-piperidin-1-yl)-propoxy]-6-methoxy-quinolin-4-yloxy}-phenyl)-3-[2-(4-fluoro-phenyl)-acetyl]-thiourea] | 21.1 |
| COc1cc2nccc(Oc3ccc(NC(=S)NC(=O)Cc4cccc(Cl)c4)cc3Cl)c2cc1OC [Example 174, 1-[3-chloro-4-(6,7-dimethoxyquinolin-4-yloxy)phenyl]-3-[2-(3-chlorophenyl)acetyl]thiourea] | 252 |
| COc1cc2c(Oc3ccc(NC(=S)NC(=O)Cc4ccccc4)cc3F)ccnc2cc1OCCN1CCOCC1 [Example 276] | 19 |
| COc1cc2c(Oc3ccc(NC(=O)NC(=O)Cc4ccc(F)cc4)cc3F)ccnc2cc1OCCN1CCN(C)CC1 [Example 49, 1-(3-fluoro-4-{6-methoxy-7-[2-(4-methyl-piperazin-1-yl)-ethoxy]quinolin-4-yloxy}phenyl)-3-[2-(4-fluorophenyl)acetyl]urea] | 51.4 |
| COc1cc2c(Oc3ccc(NC(=O)NC(=O)Cc4ccc(F)cc4)cc3F)ccnc2cc1OCCN1CCOCC1 [Example 55, 1-{3-fluoro-4-[6-methoxy-7-(2-morpholin-4-yl-ethoxy)quinolin-4-yloxy]phenyl}-3-[2-(4-fluorophenyl)-acetyl]urea] | 245 |
| COc1cc2nccc(Oc3ccc(NC(=O)CC(=O)Nc4ccc(F)cc4F)cc3Cl)c2cc1OC [Example 6, N-[3-chloro-4-(6,7-dimethoxyquinolin-4-yloxy)-phenyl]-N′-(2,4-difluorophenyl)malonamide] | 31.6 |
| COc1cc2nccc(Oc3ccc(NC(=S)NC(=O)Cc4c(F)ccc(F)c4F)cc3Cl)c2cc1OC [Example 207, 1-[3-chloro-4-(6,7-dimethoxyquinolin-4-yloxy)phenyl]-3-[2-(2,3,6-trifluorophenyl)acetyl]-thiourea] | 300 |
| COc1cc2c(Oc3ccc(NC(=S)NC(=O)Cc4ccccc4)cc3F)ccnc2cc1OCCCn1ccnc1 [Example 307, 1-{3-Fluoro-4-[7-(3-imidazol-1-yl-propoxy)-6-methoxy-quinolin-4-yloxy]-phenyl}-3-phenylacetyl-thiourea] | 57.4 |
| COc1cc2nccc(Oc3ccc(NC(=S)NC(=O)Cc4ccccc4Cl)cc3Cl)c2cc1OC [Example 183, 1-[3-chloro-4-(6,7-dimethoxyquinolin-4-yloxy)phenyl]-3-[2-(2-chlorophenyl)acetyl]thiourea] | 224 |
| COc1cc2c(Oc3ccc(NC(=O)NC(=O)Cc4ccccc4F)cc3F)ccnc2cc1OCCCN1CCCCC1 [Example 295, 1-{3-Fluoro-4-[6-methoxy-7-(3-piperidin-1-yl-propoxy)-quinolin-4-yloxy]-phenyl}-3-[2-(2-fluoro-phenyl)-acetyl]-urea] | 24.1 |

The next lines start with the values.

| IC50 [nM] | SMILES |
| --- | --- |
| 614 | COc1cc2nccc(Oc3ccc(NC(=O)NC(=O)Nc4ccccc4-n4cccc4)cc3)c2cc1OC [Example 259, N-[2-(1H-1-pyrrolyl)phenyl]-({[4-(6,7-dimethoxyquinolin-4-yloxy)anilino]carbonyl}amino)-methanamide] |
| 132 | COc1cc2nccc(Oc3ccc(NC(=S)NC(=O)c4cccc5ccccc45)c(F)c3)c2cc1OC [Example 57, 1-[4-(6,7-dimethoxyquinolin-4-yloxy)-2-fluoro-phenyl]-3-(naphthalene-1-carbonyl)thiourea] |
| 258 | COc1cc2nccc(Oc3ccc(NC(=S)NC(=O)Cc4c(Cl)cccc4Cl)c(F)c3)c2cc1OC [Example 208, 1-[2-(2,6-dichlorophenyl)acetyl]-3-[4-(6,7-dimethoxyquinolin-4-yloxy)-2-fluorophenyl]thiourea] |
| 27.8 | COc1cc2nccc(Oc3ccc(NC(=O)CC(=O)Nc4ccc(F)cc4F)c(F)c3)c2cc1OC [Example 98, N-(2,4-difluorophenyl)-N′-[4-(6,7-dimethoxy-quinolin-4-yloxy)-2-fluorophenyl]malonamide] |
| 294 | COc1cc2nccc(Oc3ccc(NC(=S)NC(=O)Cc4ccc(F)c(F)c4)c(F)c3)c2cc1OC [Example 198, 1-[2-(3,4-difluorophenyl)acetyl]-3-[4-(6,7-dimethoxyquinolin-4-yloxy)-2-fluorophenyl]thiourea] |
| 955 | COc1cc2nccc(Oc3ccc(NC(=S)NC(=O)Cc4cccc(C)c4)c(F)c3)c2cc1OC [Example 175, 1-[4-(6,7-dimethoxyquinolin-4-yloxy)-2-fluorophenyl]-3-(2-m-tolylacetyl)thiourea] |
| 2080 | COc1cc2nccc(Oc3ccc(NC(=O)NC(=O)c4ccccc4C)c(F)c3)c2cc1OC [Example 108, 1-[4-(6,7-dimethoxyquinolin-4-yloxy)-2-fluorophenyl]-3-(2-methyl-benzoyl)urea] |
| 364 | COc1cc2nccc(Oc3ccc(NC(=S)NC(=O)c4cccc(C(F)(F)F)c4)cc3)c2cc1OC [Example 145, 1-[4-(6,7-dimethoxyquinolin-4-yloxy)phenyl]-3-(3-trifluoromethyl-benzoyl)thiourea] |
| 30.8 | COc1cc2nccc(Oc3ccc(NC(=O)CC(=O)Nc4ccccc4)cc3)c2cc1OC [Example 100, N-[4-(6,7-dimethoxyquinolin-4-yloxy)phenyl]-N′-phenylmalonamide] |
| 39.1 | COc1ccccc1CC(=O)NC(=S)Nc1ccc(Oc2ccnc3cc(OC)c(OC)cc23)c(F)c1 [Example 83, 1-[4-(6,7-dimethoxyquinolin-4-yloxy)-3-fluoro-phenyl]-3-[2-(2-methoxyphenyl)acetyl]thiourea] |
| 35.1 | COc1cc2nccc(Oc3ccc(NC(=O)NC(=O)Cc4cccs4)c(F)c3)c2cc1OC [Example 30, 1-[4-(6,7-dimethoxyquinolin-4-yloxy)-2-fluoro-phenyl]-3-(2-thiophen-2-ylacetyl)urea] |
